Experimental data: US20250338846A1, “COMPOSITIONS HAVING PESTICIDAL UTILITY AND PROCESSES RELATED THERETO” (CORTEVA AGRISCIENCE, LLC, priority 2022, published 2025)

Assays:
Format in all cases: in vivo
[1] = test system: Sweet Potato Whitefly (Bemisia tabaci, BEMITA); assay: Bioassay 2: Sweet Potato Whitefly, spray on cotton seedlings at crawler emergence, nymphs counted 7-9 days after treatment
Experimental: (§1) Stock solutions were prepared with Formula One as well as for each of the active ingredients individually. Test solutions were prepared from the stock solutions. Test solutions were prepared containing Formula One, the individual active ingredients, and mixtures of Formula One with each of the active ingredients. The test solutions for Formula One and the individual active ingredients were prepared by adding 500 μL of stock solution to a 25 mL glass vial, then adding 500 μL of acetone, followed by the addition of 9 mL water with 0.025% Tween®) 20 to create a 0.001% (w/v) solution. The test solutions containing mixtures of Formula One and the individual active ingredients were prepared by adding 500 μL of the active ingredient stock solution to a 25 mL glass vial, followed by 500 μL of the Formula One stock solution, then by the addition of 9 mL water with 0.025% Tween®) 20 to create a test solution containing 0.001% (w/v) Formula One and 0.001% (w/v) of the active ingredient. Each test solution was serially diluted to create desired doses of test solutions (0.001% (w/v), 0.0001% (w/v), 0.00001% (w/v), 0.000001% (w/v), 0.0000001% (w/v), and 0.00000001% (w/v)).
(§2) The test solutions were tested against SPW using the following procedure: Cotton seedlings grown in 3-inch pots, pruned so that only one true leaf remained, were used as test substrate. Adult B. tabaci were allowed to colonize the cotton plants and lay eggs for 24 hours after which all adults were removed from the plants using compressed air. Plants were monitored for egg development and, when crawler emergence was underway (>25% emergence based on visual examination using a microscope), the plants were sprayed using the test solutions and methods described above for green peach aphids (GPA). Treated plants were held in a holding room at approximately 25° C. and ambient relative humidity (RH) prior to grading. Evaluation was conducted by counting the number of developed 2-3 instar nymphs per plant under a microscope 7-9 days after treatment. Percent control was measured using Abbott's correction formula (W. S. Abbott, J. Econ. Entomol. 18 (1925), pp. 265-267) as follows:
where X=No. of live nymphs on solvent check plants and Y=No. of live nymphs on treated plants. In Table B2 the “Expected % Control” was calculated using the method described in Colby S. R., Weeds, 1967, 15, 20-22. Bioassay 3: Western Flower Thrips (Frankliniella occidentalis, FRANOC) (“WFT”).

[2] = test system: Diamondback Moth (Plutella xylostella, PLUTMA); assay: Bioassay 6: Diamondback Moth, artificial lepidopteran diet, live larvae after 5 days; conditions: DBM; AI alone 0.04 % w/v
Experimental: where X=No. of live nymphs on solvent check and Y=No. of live nymphs on treated bean segments. In Table B5 the “Expected % Control” was calculated using the method described in Colby S. R., Weeds, 1967, 15, 20-22. Bioassay 6: Beet Armyworm (Spodoptera exigua, LAPHEG) (BAW), and Diamondback Moth (Plutella xylostella, PLUTMA) (DBM).
(§3) Stock solutions were prepared with Formula One as well as for each of the active ingredients individually. Test solutions were prepared from the stock solutions. Test solutions were prepared containing Formula One, the individual active ingredients, and mixtures of Formula One with each of the active ingredients. The test solution for Formula One was prepared by adding 500 μL of the stock solution to a 25 mL glass vial, then adding 500 μL of a 9:1 mixture of acetone: water. The individual active ingredients were prepared by adding 500 μL of stock solution to a 25 mL glass vial, then adding 500 μL of a 9:1 mixture of acetone: water. The test solutions containing mixtures of Formula One and the individual active ingredients were prepared by adding 500 μL of the active ingredient stock solution to a 25 mL glass vial, followed by 500 μL of the Formula One stock solution, creating a test solution containing 4000 ppm Formula One and 0.4% (w/v) of the active ingredient. Each test solution was serially diluted to create desired doses of test solutions (0.4% (w/v), 0.04% (w/v), 0.004% (w/v), 0.0004% (w/v), 0.00004% (w/v), and 0.000004% (w/v)). In test solutions containing mixtures of Formula One and the active ingredients, the active ingredients were diluted as described above, but the Concentration of Formula One was held constant (0.4% (w/v)). The highest dose test solution (0.4% (w/v)) was discarded, leaving 5 test solution concentrations used in the test.
The test solutions were tested against BAW and DBM using the following procedure: An artificial lepidopteran diet (Multispecies Lepidopteran Diet, Southland Products) was distributed in 128-cell bioassay trays (Frontier Agricultural Sciences™). 50 μL of test solution was pipetted into a cell in the bioassay tray. (The test solution doses of 0.04% (w/v), 0.004% (w/v), 0.0004% (w/v), 0.00004% (w/v), and 0.000004% (w/v) translated to concentrations of 5, 0.5, 0.05, 0.005, and 0.0005 ug/cm^2 on the diet, respectively.) A reference treatment (solvent check) was treated with the diluent only. […] After 5 days, the number of live larvae were recorded from each cell and percent control was measured using Abbott's correction formula (W. S. Abbott, J. Econ. Entomol. 18 (1925), pp. 265-267) as follows:
where X=No. of live larvae on solvent check and Y=No. of live larvae on treated diet. In Table B6 the “Expected % Control” was calculated using the method described in Colby S. R., Weeds, 1967, 15, 20-22. […]

[3] = test system: Diamondback Moth (Plutella xylostella, PLUTMA); assay: Bioassay 9: Diamondback Moth, leaves of track-sprayed cabbage plants, mortality and feeding damage scored
Experimental: (§4) where X=No. of live nymphs on solvent check plants and Y=No. of live nymphs on treated plants. In Table B2 the “Expected % Control” was calculated using the method described in Colby S. R., Weeds, 1967, 15, 20-22. Bioassay 9: Diamondback Moth (Plutella xylostella, PLUTMA) (DBM).
as §3
Cabbage seedlings, grown in 3-inch pots with 2-3 small (3-5 centimeter (cm)) true leaves, were used as test substrate. Cabbage plants were sprayed with desired concentrations of Formula One and active ingredients or their mixtures using a track Sprayer. Reference plants (solvent check) were sprayed with diluent only (0.025% Tween® 20 and 10% acetone:methanol (1:1) in water). The sprayed cabbage plants were allowed to dry for 1 hour, after which leaves from each treatment were placed in a cell of a plastic tray. One leaf per cell and 8 replicates for each cell. The tested doses ranged between 0.000001% (w/v) to 0.0002% (w/v). One 2nd instar DBM larvae were placed in each cell of the tray and allowed to feed on the cabbage foliage for […] after which the mortality and feeding damage were scored. Test trays were held at approximately 26° C. and ambient relative humidity (RH) prior to grading. The number of live larvae were recorded from each cell and percent control was measured using Abbott's correction formula (W. S. Abbott, J. Econ. Entomol. 18 (1925), pp. 265-267) as follows:
where X=No. of live larvae on solvent check and Y=No. of live larvae on treated diet. In Table B6 the “Expected % Control” was calculated using the method described in Colby S. R., Weeds, 1967, 15, 20-22.

[4] = test system: Sweet Potato Whitefly (Bemisia tabaci, BEMITA); assay: Bioassay 8: Sweet Potato Whitefly, spray on cotton seedlings at crawler emergence, nymphs counted 7-9 days after treatment; conditions: AI alone 0.1 (10^-5) Wt %
Experimental: (§5) where X=No. of live aphids on solvent check plants and Y=No. of live aphids on treated plants. In Table B1 the “Expected % Control” was calculated using the method described in Colby S. R., Weeds, 1967, 15, 20-22. Bioassay 8: Sweet Potato Whitefly (Bemisia tabaci, BEMITA) (“SPW”).
as §1, with “0.0000001% (w/v), […] and 0.00000001%” for “0.0000001% (w/v), and 0.00000001%”
as §2, §4

[5] = test system: Cotton Aphid (Aphis gossypii, APHIGO); assay: Bioassay 7: Cotton Aphid, foliar spray on infested cotton seedlings, live aphids counted three days after treatment
Experimental: where X=No. of live larvae on solvent check and Y=No. of live larvae on treated diet. In Table B6 the “Expected % Control” was calculated using the method described in Colby S. R., Weeds, 1967, 15, 20-22. Bioassay 7: Cotton Aphid (Aphis gossypii, APHIGO) (“CA”).
Stock solutions of Formula One and one or more of the active ingredients were prepared at concentrations of 1 mg/mL using a 1:1 mixture of acetone: methanol as a diluent. The stock solutions were prepared with Formula One as well as for each of the active ingredients individually. Test solutions were prepared from the stock solutions. Test solutions were prepared containing Formula One, the individual active ingredients, and mixtures of Formula One with each of the active ingredients. The test solutions for Formula One and the individual active ingredients were prepared by adding 1.5 mL of stock solution to a 30 mL glass vial, then adding 1.5 mL of 1:1 acetone: methanol solvent, followed by the addition of 27 mL water with 0.025% Tween® 20 to create a […]. Each test solution was serially diluted to create desired doses of test solutions ranging from 0.000001 to 0.0025% (w/v). The test solutions were tested against CA using the following procedure: cotton seedlings were grown in 3-inch pots with one true leaf (2-5 cm in diameter) were used as test substrate. The seedlings were infested with 20-50 CA (wingless adult and nymph stages) one day prior to chemical application. Four pots with individual seedlings were used for each treatment. A hand-held aspirator-type sprayer was used for spraying a solution to both sides of […] leaves until runoff. Reference plants (solvent check) were sprayed with the diluent only (0.025% Tween® 20 and 10% acetone:methanol (1:1) in water). Treated plants were held in a holding room for three days at approximately 25° C. and ambient relative humidity (RH about 20% to about 45%) prior to grading. Evaluation was conducted by counting the number of live aphids per plant under a microscope three days after treatment. Percent control was measured using Abbott's correction formula (W. S. Abbott, J. Econ. Entomol. 18 (1925), pp. 265-267) as follows:
as §5

C[C@]1(COC(=O)C2CC2)[C@@H]2C[C@H](O)[C@@]3(C)Oc4cc(-c5cccnc5)oc(=O)c4[C@H](O)[C@@H]3[C@@]2(C)CC[C@@H]1OC(=O)C1CC1 [Afidopyropen]
Average % Control AI ([1]; AI alone 0.1 (10-5) % w/v): 0%
Average % Control AI ([1]; AI alone 1 (10-5) % w/v): 0%
Average % Control AI [2]: 25%

CC1(C)[C@H](C(=O)O[C@H](C#N)c2cccc(Oc3ccccc3)c2)[C@@H]1C=C(Br)Br [Deltamethrin]
Average % Control AI ([3]; AI alone 5 (10^-5) Wt %): 30.43%
Average % Control AI ([3]; AI alone 10 (10^-5) Wt %): 15.22%
Average % Control AI ([3]; AI alone 20 (10^-5) Wt %): 30.43%
Average % Control A1 [4]: 35.94%
Average % Control A1 ([5]; AI alone 0.78 (10^-5) Wt %): 26.73%
Average % Control A1 ([5]; AI alone 2.5 (10^-5) Wt %): 34.23%
Average % Control A1 ([5]; AI alone 10 (10^-5) Wt %): 34.23%

Cc1cc(C)c(C2=C(OC(=O)CC(C)(C)C)C3(CCCC3)OC2=O)c(C)c1 [Spiromesifen]
Average % Control AI ([1]; AI alone 0.1 (10-5) % w/v): 0%
Average % Control AI [2]: 0%

Tetraniliprole
Average % Control AI ([3]; AI alone 0.1 (10^-5) Wt %): 16.67%
Average % Control AI ([3]; AI alone 1 (10^-5) Wt %): 50.00%
Average % Control AI ([3]; AI alone 5 (10^-5) Wt %): 41.67%
Average % Control A1 [4]: 40.00%
Average % Control A1 ([5]; AI alone 0.1 (10^-5) Wt %): 44.54%
Average % Control A1 ([5]; AI alone 0.8 (10^-5) Wt %): 7.23%
